# Laboratory results published in patent publication US20190256499A1, “SUBSTITUTED QUINOXALINE DERIVATIVES AS INHIBITORS OF PFKFB” (priority 2016, published 2019).
# Assays:
# [1] = molecular target: T1, Human recombinant His-tagged PFKFB3 (Homo sapiens, UniProt Q16875); experiment: PFKFB3 IC50 determination assay (modified ADP-Glo in vitro kinase assay); format: biochemical; conditions: human recombinant PFKFB3 25 nM, ATP 20 μM, fructose-6-phosphate 2 μM, 2 h, rt; read-out: PFKFB IC50
# T1 construct: His; made in house
# T1 sequence (Q16875 whole entry): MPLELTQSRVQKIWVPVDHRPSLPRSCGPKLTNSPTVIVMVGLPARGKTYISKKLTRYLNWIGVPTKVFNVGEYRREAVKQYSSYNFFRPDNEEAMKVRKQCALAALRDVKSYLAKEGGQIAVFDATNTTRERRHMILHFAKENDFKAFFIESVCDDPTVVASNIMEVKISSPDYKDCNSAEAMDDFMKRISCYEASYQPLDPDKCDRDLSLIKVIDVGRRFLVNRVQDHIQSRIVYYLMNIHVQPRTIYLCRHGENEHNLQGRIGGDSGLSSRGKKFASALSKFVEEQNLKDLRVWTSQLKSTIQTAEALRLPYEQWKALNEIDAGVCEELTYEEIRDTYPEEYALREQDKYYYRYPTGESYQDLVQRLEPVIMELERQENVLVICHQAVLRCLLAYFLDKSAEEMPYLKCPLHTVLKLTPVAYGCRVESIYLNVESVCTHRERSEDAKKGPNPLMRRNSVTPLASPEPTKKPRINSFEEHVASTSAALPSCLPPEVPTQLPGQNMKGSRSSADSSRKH
# Description: In vitro kinase assay used to determine IC50 values for tested inhibitors is based on a modified ADP-Glo™ system (Promega) and consists of two parts:
# 1. Kinase reaction—performed in optimized conditions. At this step PFKFB3 phosphorylates its substrate fructose-6-phosphate using ATP as a source of phosphate to produce fructose-2,6-bisphosphate and ADP. Reaction is performed at Km values for ATP and substrate using optimized buffer composition and time of the reaction. Human recombinant His-tagged PFKFB3 (PFKFB3 BATCH II SEC) with confirmed activity is produced and purified in-house. 2. Detection of ADP as a product of the reaction using ADP-Glo™ system. This part is conducted by using the commercially available kit ADP-Glo™ Kinase Assay (Promega, cat. No# V9103) according to manufacturer's instruction, modified by 5× dilutions of assay reagents (both ADP-Glo™ Reagent and Kinase Detection Solution). Reproducibility and reliability of this modification is confirmed in an optimization process.
# Test compounds are dissolved in DMSO and then transferred to the V-bottom 96-well plate. For IC50 determination ten 10× serial dilutions starting from 100 μM are prepared.
# Two mixes are prepared on ice: Mix 1—containing appropriate kinase amount in 2× reaction buffer (100 mM TRIS pH 8.0) and Mix 2—containing 2.31× concentrated substrate (Fructose-6-phosphate) and ATP in MilliQ water. 15 μL per well of Mix 1 is transferred to assay wells of 96-well white plate. Next, 2 μl of 15× concentrated test compound in DMSO is added to Mix 1 for 20 min pre-incubation, followed by addition of Mix 2 (13 μl/well). Total reaction volume is 30 μL per well. Samples are tested in duplicates. Final concentration of DMSO in the reaction is 6.7%. Conditions needed for performing PFKFB3 (PFKFB3 BATCH II SEC) in vitro kinase assay are given below:
# This protocol is based on Technical Bulletin, ADP-Glo™ Kinase Assay (Promega) and is adapted to 96-well plate containing 30 μL reaction mixture:
# 30 μL of 5× diluted ADP-Glo™ Reagent is added to each well of 96-well plate containing 30 μL of reaction mixture. The plate is incubated for 90 minutes on a shaker at rt. 60 μL of 5× diluted Kinase Detection Solution is added to each well of 96-well plate containing 60 μL of the solution (ratio of kinase reaction volume to ADP-Glo™ Reagent volume to Kinase Detection Solution volume is maintained at 1:1:2). Plate is incubated for 40 minutes on a shaker at rt, protected from light. Luminescence is measured in the plate reader Synergy 2 (BioTek).
# Luminescent readouts for compounds tested in 10 concentrations (routinely from 100 μM to […], […] serial dilutions) in duplicates, as well as for positive control, are first normalized to no-substrate negative control by its subtraction. In the next step, % of normalized positive control is calculated for each data point and plotted against test compound concentration:
# % of control—percent of positive control normalized to no-substrate negative control Lumcpd—luminescence of test compound Lumneg—luminescence of no-substrate negative control Lumpos—luminescence of positive control
# IC50 parameter is determined by the GraphPad Prism 5.0 software [log(inhibitor) vs. response—Variable slope (four parameters)].
# [2] = Microsomal stability (intrinsic clearance), mouse liver microsomes; format: in vitro ADME; conditions: mouse, liver microsomes, pH 7.4, mouse liver microsomes
# Description: (§1) A microsomal stability assay is used to measure in vitro clearance (Clint). The assay involves measuring the rate of disappearance of a compound due to its intrinsic attitude to be metabolized (“intrinsic” meaning that the disappearance is not affected by other properties like permeability, binding etc. that play a role when quantifying in vivo clearance). The microsomal stability (intrinsic clearance, Clint) and thus metabolic stability is generally given as μl/min/mg protein. It can be visualized as the volume of solution that 1 mg of microsomes is able to clear of the compound in one minute.
# (§2) A Tecan Genesis workstation (RSP 150/8) was used for to perform the microsomal incubations. Analysis was carried out using a Waters ACQUITY UPLC system coupled to an ABSciex API3000 mass spectrometer. Data analysis was performed using Assay Explorer (Symyx).
# (§3) Mobile phases: A=0.1% formic acid in water; B=acetonitrile
# (§4) Flow rate: 0.750 mL/min; Detection: ESI, MRM; Injection: 10 μL; Column temperature: 50° C.
# (§5) Potassium phosphate buffer: 0.05 M potassium phosphate buffer pH 7.4 containing 1 mM MgCl2 NADPH (nicotinamide adenine dinucleotide phosphate): 22.5 mg NADPH-Na4 in 1.8 ml potassium phosphate buffer Acetonitrile: 50 Vol % acetonitrile (1 volume acetonitrile, 1 volume water) DMSO: 20 Vol % DMSO in water Stock solution of 20 mg/ml human or mouse liver microsomes (protein)/ml in phosphate buffer Stock solution of 10 mM compound in 100% DMSO
# [3] = Microsomal stability (intrinsic clearance), human liver microsomes; format: in vitro ADME; conditions: human, liver microsomes, pH 7.4, human liver microsomes
# Description: as §1, §2, §3, §4, §5
# [4] = Kinetic solubility; format: physicochemical; conditions: phosphate buffer, pH 7.4, aqueous buffer, kinetic from dmso stock, phosphate buffer 20 mM pH 7.4, 2% DMSO, room temperature
# Description: Kinetic solubility of compounds of the present invention were tested according the following procedure.
# (a) Buffer Solution Phosphate Buffer 20 mM pH 7.4 is prepared using Sorensen Phosphate Buffer 0.2 M pH 7.4 (EMS) in a 1000 mL volumetric flask (b) 2% DMSO in Phosphate Buffer 20 mM pH 7.4 is prepared by using 1 mL Dimethylsulfoxide (Merck) and 49 ml Sorensen Phosphate Buffer 20 mM pH 7.4 (c) Acetonitrile/Methanole/Eluent A (1:1:2; v/v/v) is prepared by using 50 mL Acetonitrile (Merck), 50 mL Methanol (Merck) and 100 mL Eluent A (d) Eluent A is prepared by using 1 mL Formic Acid (Merck) and 999 mL Ultrapure water (e) Eluent B is prepared by using 1 mL Formic Acid (Merck) and 999 mL Acetonitrile (Merck) (f) Filtration plate: Millipore MultiScreen HTS HV (0.45 μm) 96 Well (Millipore)
# 98 μL buffer solution (a) is added into a well of a 96 well filtration plate (f). Then 2 μL of 10 mM test compound solution in DMSO (Remp tube) is added. The filtration plate is incubated at room temperature for 120 minutes while agitating at 250 rpm and centrifuged with the PP-Plate (g) as receiver plate below (2500 rpm, 3 min). The 50 μL of filtrate is taken from the receiver plate and mixed with 50 μL of 2% DMSO in buffer pH 7.4 solution (b) (dilution factor=2) in a HPLC Vial (i)+(j).
# Standard is prepared by diluting 2 μL of the same 10 mM test compound solution (Remp tube) diluted with 198 μL Acetonitrile/Methanole/Eluent A (1:1:2; v/v/v) (c) to prepare a 100 μM standard solution in a HPLC Vial (i)+(j).
# Column temperature: 37° C. Autosampler: room temperature (approx. 25° C.) Gradient programme: […]
# Injection volume: 10 μL Wavelength: Suitable wavelength (maximum sensitivity) selected out of wavelength range of 190-400 nm using a DAD detector.
# L [μg/mL]=(area sample*concentration standard*dilution factor sample)/(area standard*dilution factor standard)
# S [mol/L]=[…] Calculation: […]
Compound,IC50 [1],microsomal CLint [2],microsomal CLint [3],solubility kinetic at 120 min [4]
"COc1ccc([C@H](Nc2cc(-c3ccc4ccn(C)c4c3)c3nccnc3c2)c2cccnc2)nn1 (single isomer, unassigned) [Example 6]",900 nM,134 µL/min/mg,174 µL/min/mg,18 µM
"Cn1cc([C@H](Nc2cc(-c3ccc4ccn(C)c4c3)c3nccnc3c2)c2cccnc2)cn1 (single isomer, unassigned) [Example 18]",6.5 nM,148 µL/min/mg,142 µL/min/mg,39 µM
"Cn1cc([C@@H](Nc2cc(-c3cnc4ccn(C)c4c3)c3nccnc3c2)c2cccnc2)cn1 (single isomer, unassigned) [Example 26]",1100 nM,58 µL/min/mg,67 µL/min/mg,192 µM
"Cn1ccc([C@H](Nc2cc(-c3ccc4ccn(C)c4c3)c3nccnc3c2)c2cnnn2C)n1 (single isomer, unassigned) [Example 30]",190 nM,216 µL/min/mg,132 µL/min/mg,96 µM
"Cn1cc([C@H](Nc2cc(-c3cnc4ccn(C)c4c3)c3nccnc3c2)c2cccnc2)cn1 (single isomer, unassigned) [Example 27]",6300 nM,64 µL/min/mg,404 µL/min/mg,161 µM
